Measurements: US8618095B2 (Rigel Pharmaceuticals, Inc., priority 2010, dated 2013)
Where a name gives a salt, the structure may show the parent alone.

tested on: Human mast cells (CHMC); experiment: LD Tryptase release assay in CHMC (mast cell activation induced by FcγR cross-linking); type: cell-based; settings: Homo sapiens, Mast cell, anti-IgG stimulation, activity of tryptase released upon degranulation
Experimental: Compounds were assayed for inhibition of mast cell activation induced by FcγR cross-linking by measuring the activity of tryptase released upon degranulation as follows:
Human mast cells were cultured and differentiated from […] progenitor cell as described in U.S. Patent Publication No. 2005-234049, incorporated herein by reference. For example, 65 μL of various concentrations of the compound to be assayed were prepared in MT (137 mM NaCl, 2.7 mM KCl, 1.8 mM CaCl2, 1.0 mM MgCl2, 5.6 mM Glucose, 20 mM Hepes (pH 7.4), 0.1% Bovine Serum Albumin, (Sigma A4503)) containing 2% MeOH and 1% DMSO, or control buffer were added to duplicate 96-well V-bottom plates. Pelleted and re-suspended (in warm MT) CHMC cells (65 μL) were added to each 96-well plate, mixed and incubated for 1 hour at 37° C. 25 μl of 6× anti-IgG Rabbit anti-human IgG, Affinity purified (Bethyl Laboratories Cat No. A80-105A3) final concentration 1 μg/mL, was added to the test wells. MT (25 μL) was added to control wells. After a 60-minute incubation at 37° C., cells and cell debris were pelleted by centrifugation at 1000 rpm for 10 min and tryptase and leukotriene C4 levels were measured.
To measure tryptase levels, 25 μL of supernatant from each well was transferred to a fresh 96-well black bottom plate, to which 100 μL of fresh tryptase substrate solution [(Z-Ala-Lys-Arg-AMC2TFA; Enzyme Systems Products, #AMC-246)] 1:2000 in tryptase assay buffer [0.1 M Hepes (pH 7.5), 10% w/v Glycerol, 10 μM Heparin (Sigma H-4898) 0.01% NaN3] was added. After 30 minute incubation at room temperature, the optical density of the plates is measured at 355 nm/460 nm on a spectrophotometric plate reader. Table 1 provides the IC50 values.
Compounds of the disclosure were assayed for their ability to inhibit mast cell activation induced by FcγR cross-linking by measuring the activity of tryptase released upon degranulation. The IC50 values for the LD Tryptase assay are presented in Table 2, in which “0” is >100 μM; “A” is 1-100 μM; “B” is 0.5-1 μM; “C” is 0.1-0.5 μM; and “D” is less than 0.1 μM: […]

Structure (SMILES)	IC50 [nM]
C[C@@H]1CN(c2ccc(Nc3ncc(F)c(Nc4ccc5c(n4)NC(=O)CO5)n3)cn2)CCO1 [Compound 6, N4-(3,4-dihydro-3-oxo-2H-pyrido[3,2-b][1,4]oxazin-6-yl)-5-fluoro-N2-[6-((2R)-2-methylmorpholino)pyridin-3-yl]-2,4-pyrimidinediamine]	< 100
CC1(C)Oc2ccc(Nc3nc(Nc4ccc(N5CCC6(CCOC6)CC5)nc4)ncc3F)nc2NC1=O [Compound 144, N4-(2,2-dimethyl-3,4-dihydro-3-oxo-2H-pyrido[3,2-b][1,4]oxazin-6-yl)-5-fluoro-N2-[6-(2-oxa-8-azaspiro[4.5]decan-8-yl)pyridin-3-yl]-2,4-pyrimidinediamine]	100 to 500
COC1CCN(c2ccc(Nc3ncc(F)c(Nc4ccc5c(n4)NC(=O)C(C)(C)O5)n3)cn2)CC1 [Compound 53, N4-(2,2-dimethyl-3,4-dihydro-3-oxo-2H-pyrido[3,2-b][1,4]oxazin-6-yl)-5-fluoro-N2-[6-(4-methoxypiperidin-1-yl)pyridin-3-yl]-2,4-pyrimidinediamine]	100 to 500
CC1(C)Oc2ccc(Nc3nc(Nc4ccc(N5CCC(N)CC5)cc4)ncc3F)nc2NC1=O [Compound 90, N4-(2,2-dimethyl-3,4-dihydro-3-oxo-2H-pyrido[3,2-b][1,4]oxazin-6-yl)-5-fluoro-N2-[4-(4-aminopiperidin-1-yl)phenyl]-2,4-pyrimidinediamine]	100 to 500
CCOC1CCN(c2ccc(Nc3ncc(F)c(Nc4ccc5c(n4)NC(=O)C(C)(C)O5)n3)cn2)CC1 [Compound 54, N4-(2,2-dimethyl-3,4-dihydro-3-oxo-2H-pyrido[3,2-b][1,4]oxazin-6-yl)-5-fluoro-N2-[6-(4-ethoxypiperidin-1-yl)pyridin-3-yl]-2,4-pyrimidinediamine]	1000 to 100000
CC1(C)Oc2ccc(Nc3nc(Nc4ccc(N5CCC(N6CCOCC6)CC5)cc4)ncc3F)nc2NC1=O [Compound 87, N4-(2,2-dimethyl-3,4-dihydro-3-oxo-2H-pyrido[3,2-b][1,4]oxazin-6-yl)-5-fluoro-N2-[4-(4-morpholinopiperidin-1-yl)phenyl]-2,4-pyrimidinediamine]	100 to 500
CCN(CC)C1CCN(c2ccc(Nc3ncc(F)c(Nc4ccc5c(n4)NC(=O)C(C)(C)O5)n3)cn2)C1 (stereo not shown) [Compound 66, N4-(2,2-dimethyl-3,4-dihydro-3-oxo-2H-pyrido[3,2-b][1,4]oxazin-6-yl)-5-fluoro-N2-[6-(3-(diethylamino)pyrrolidin-1-yl)pyridin-3-yl]-2,4-pyrimidinediamine]	500 to 1000
CC1(C)Oc2ccc(Nc3nc(Nc4ccc(N5CCN6CCC5CC6)nc4)ncc3F)nc2NC1=O [Compound 62, N4-(2,2-dimethyl-3,4-dihydro-3-oxo-2H-pyrido[3,2-b][1,4]oxazin-6-yl)-5-fluoro-N2-[6-(1,4-diazabicyclo[3.2.2]nonan-4-yl)pyridin-3-yl]-2,4-pyrimidinediamine]	500 to 1000
CC1(C)Oc2ccc(Nc3nc(Nc4ccc(N5CCOCC5)c(OC(F)(F)F)c4)ncc3F)nc2NC1=O [Compound 28, N4-(2,2-dimethyl-3,4-dihydro-3-oxo-2H-pyrido[3,2-b][1,4]oxazin-6-yl)-5-fluoro-N2-[3-trifluoromethoxy-4-morpholinophenyl]-2,4-pyrimidinediamine]	> 100000
CC1(C)Oc2ccc(Nc3nc(Nc4ccc(N5CC[C@H](CO)C5)nc4)ncc3F)nc2NC1=O [Compound 71, N4-(2,2-dimethyl-3,4-dihydro-3-oxo-2H-pyrido[3,2-b][1,4]oxazin-6-yl)-5-fluoro-N2-[6-((3S)-3-(hydroxymethyl)pyrrolidin-1-yl)pyridin-3-yl]-2,4-pyrimidinediamine]	100 to 500
CC1(C)Oc2ccc(Nc3nc(Nc4ccc(N5CCC(O)C5)nc4)ncc3F)nc2NC1=O (stereo in doubt) [Compound 55, N4-(2,2-dimethyl-3,4-dihydro-3-oxo-2H-pyrido[3,2-b][1,4]oxazin-6-yl)-5-fluoro-N2-[6-((3R)-3-hydroxypyrrolidin-1-yl)pyridin-3-yl]-2,4-pyrimidinediamine]	< 100
CC1(C)Oc2ccc(Nc3nc(Nc4cc(F)c(N5CCOCC5)c(F)c4)ncc3F)nc2NC1=O [Compound 31, N4-(2,2-dimethyl-3,4-dihydro-3-oxo-2H-pyrido[3,2-b][1,4]oxazin-6-yl)-5-fluoro-N2-[3,5-difluoro-4-morpholinophenyl]-2,4-pyrimidinediamine]	1000 to 100000
CC1(C)Oc2ccc(Nc3nc(Nc4ccc(N5CCC6(CCCO6)CC5)cc4)ncc3F)nc2NC1=O [Compound 156, N4-(2,2-dimethyl-3,4-dihydro-3-oxo-2H-pyrido[3,2-b][1,4]oxazin-6-yl)-5-fluoro-N2-[4-(1-oxa-8-azaspiro[4.5]decan-8-yl)phenyl]-2,4-pyrimidinediamine]	100 to 500
CC(C)[C@@H]1COC(=O)N1c1ccc(Nc2ncc(F)c(Nc3ccc4c(n3)NC(=O)C(C)(C)O4)n2)cn1 [Compound 73, N4-(2,2-dimethyl-3,4-dihydro-3-oxo-2H-pyrido[3,2-b][1,4]oxazin-6-yl)-5-fluoro-N2-[6-((4R)-4-isopropyl-2-oxooxazolidin-3-yl)pyridin-3-yl]-2,4-pyrimidinediamine]	100 to 500
O=C1COc2ccc(Nc3nc(Nc4ccc(N5CCOCC5=O)cc4)ncc3F)nc2N1 [Compound 39]	100 to 500
CC1(C)CN(c2ccc(Nc3ncc(F)c(Nc4ccc5c(n4)NC(=O)C(C)(C)O5)n3)cc2)CCO1 [Compound 116, N4-(2,2-dimethyl-3,4-dihydro-3-oxo-2H-pyrido[3,2-b][1,4]oxazin-6-yl)-N2-[4-(2,2-dimethylmorpholino)phenyl]-5-fluoro-2,4-pyrimidinediamine]	< 100
CC1(C)CN(c2ccc(Nc3ncc(F)c(Nc4ccc5c(n4)NC(=O)CO5)n3)cc2)CCO1 [Compound 115, N4-(3,4-dihydro-3-oxo-2H-pyrido[3,2-b][1,4]oxazin-6-yl)-N2-[4-(2,2-dimethylmorpholino)phenyl]-5-fluoro-2,4-pyrimidinediamine]	< 100
CC1(C)Oc2ccc(Nc3nc(Nc4ccc(N5CC[C@@H](O)C5)nc4)ncc3F)nc2NC1=O [Compound 64, N4-(2,2-dimethyl-3,4-dihydro-3-oxo-2H-pyrido[3,2-b][1,4]oxazin-6-yl)-5-fluoro-N2-[6-((3R)-3-hydroxypyrrolidin-1-yl)pyridin-3-yl]-2,4-pyrimidinediamine]	100 to 500
Cc1cc(Nc2ncc(F)c(Nc3ccc4c(n3)NC(=O)CO4)n2)cnc1N1CCOCC1 [Compound 11, N4-(3,4-dihydro-3-oxo-2H-pyrido[3,2-b][1,4]oxazin-6-yl)-5-fluoro-N2-[5-methyl-6-morpholinopyridin-3-yl]-2,4-pyrimidinediamine]	< 100
CC1(C)CN(c2ccc(Nc3ncc(F)c(Nc4ccc5c(n4)NC(=O)CO5)n3)cn2)CCO1 [Compound 9, N4-(3,4-dihydro-3-oxo-2H-pyrido[3,2-b][1,4]oxazin-6-yl)-5-fluoro-N2-[6-(2,2-dimethylmorpholino)pyridin-3-yl]-2,4-pyrimidinediamine]	100 to 500
CC1(C)Oc2ccc(Nc3nc(Nc4ccc(N5CCC(O)CC5)nc4)ncc3F)nc2NC1=O [Compound 52, N4-(2,2-dimethyl-3,4-dihydro-3-oxo-2H-pyrido[3,2-b][1,4]oxazin-6-yl)-5-fluoro-N2-[6-(4-hydroxypiperidin-1-yl)pyridin-3-yl]-2,4-pyrimidinediamine]	< 100
C[C@H]1COCCN1c1ccc(Nc2ncc(F)c(Nc3ccc4c(n3)NC(=O)CO4)n2)cc1 [Compound 119, N4-(3,4-dihydro-3-oxo-2H-pyrido[3,2-b][1,4]oxazin-6-yl)-5-fluoro-N2-[4-((3S)-3-methylmorpholino)phenyl]-2,4-pyrimidinediamine]	< 100
CC1(C)Oc2ccc(Nc3nc(Nc4ccc(N5CCC(N6CCOCC6)CC5)nc4)ncc3F)nc2NC1=O [Compound 60, N4-(2,2-dimethyl-3,4-dihydro-3-oxo-2H-pyrido[3,2-b][1,4]oxazin-6-yl)-5-fluoro-N2-[6-(4-morpholinopiperidin-1-yl)pyridin-3-yl]-2,4-pyrimidinediamine]	100 to 500

same assay, conditions: anti-IgG stimulation, activity of tryptase released upon degranulation

Structure (SMILES)	IC50 [nM]
CC1(C)Oc2ccc(Nc3nc(Nc4ccc(N5CCOCC5)nc4)ncc3F)nc2NC1=O [Compound 139, N4-(2,2-dimethyl-3,4-dihydro-3-oxo-2H-pyrido[3,2-b][1,4]oxazin-6-yl)-5-fluoro-N2-[6-morpholinopyridin-3-yl]-2,4-pyrimidinediamine p-toluenesulfonic acid salt]	500 to 1000
CC1(C)Oc2ccc(Nc3nc(Nc4ccc(N5CCOCC5)nc4)ncc3F)nc2NC1=O [Compound 141, N4-(2,2-dimethyl-3,4-dihydro-3-oxo-2H-pyrido[3,2-b][1,4]oxazin-6-yl)-5-fluoro-N2-[6-morpholinopyridin-3-yl]-2,4-pyrimidinediamine benzenesulfonic acid salt]	100 to 500
